In experiment [1] the target is T1, Serine/threonine-protein kinase pim-1 (Homo sapiens, UniProt P11309). Description: Inhibition of PIM1.
Target sequence in this assay (P11309 whole entry): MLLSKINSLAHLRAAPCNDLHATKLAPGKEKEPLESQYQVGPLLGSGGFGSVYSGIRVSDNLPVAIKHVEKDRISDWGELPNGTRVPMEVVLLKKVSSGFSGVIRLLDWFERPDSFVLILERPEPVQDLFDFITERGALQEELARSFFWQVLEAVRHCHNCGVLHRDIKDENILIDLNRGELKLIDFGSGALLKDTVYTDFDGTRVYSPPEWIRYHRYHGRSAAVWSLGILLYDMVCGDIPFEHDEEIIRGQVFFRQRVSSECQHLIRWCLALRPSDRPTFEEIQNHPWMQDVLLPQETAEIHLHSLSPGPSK
The target in experiment [2] is T1, Serine/threonine-protein kinase pim-1. As to the kind of experiment: Inhibition of PIM1 at 10 uM.
Target sequence in this assay (P11309 whole entry, looked up): as the sequence (P11309 whole entry) above
Experiment [3] deals with Casein kinase I isoform alpha (Homo sapiens, UniProt P48729). As to the kind of experiment: Inhibition of CK1.
In experiment [4] the target is CDK1/Cyclin A (Homo sapiens, UniProt P06493). Description: Inhibition of CDK1/Cyclin A. The format is protein-complex assay.
The target in experiment [5] is Dual specificity protein kinase CLK1 (Homo sapiens, UniProt P49759). As to the kind of experiment: Inhibition of CLK1.
Experiment [6] has as its target Dual specificity tyrosine-phosphorylation-regulated kinase 1A (Mus musculus, UniProt Q61214). Description: Inhibition of mouse DYRK1A expressed in Escherichia coli after 20 mins.
The target in experiment [7] is Cyclin-dependent kinase 5/CDK5 activator 1 (Homo sapiens, UniProt Q00535). As to the kind of experiment: Inhibition of CDK5/P25. Type of experiment: protein-complex assay.
In experiment [8] the target is T2, Dual specificity tyrosine-phosphorylation-regulated kinase 2 (Homo sapiens, UniProt Q92630).
T2 sequence (Q92630 whole entry): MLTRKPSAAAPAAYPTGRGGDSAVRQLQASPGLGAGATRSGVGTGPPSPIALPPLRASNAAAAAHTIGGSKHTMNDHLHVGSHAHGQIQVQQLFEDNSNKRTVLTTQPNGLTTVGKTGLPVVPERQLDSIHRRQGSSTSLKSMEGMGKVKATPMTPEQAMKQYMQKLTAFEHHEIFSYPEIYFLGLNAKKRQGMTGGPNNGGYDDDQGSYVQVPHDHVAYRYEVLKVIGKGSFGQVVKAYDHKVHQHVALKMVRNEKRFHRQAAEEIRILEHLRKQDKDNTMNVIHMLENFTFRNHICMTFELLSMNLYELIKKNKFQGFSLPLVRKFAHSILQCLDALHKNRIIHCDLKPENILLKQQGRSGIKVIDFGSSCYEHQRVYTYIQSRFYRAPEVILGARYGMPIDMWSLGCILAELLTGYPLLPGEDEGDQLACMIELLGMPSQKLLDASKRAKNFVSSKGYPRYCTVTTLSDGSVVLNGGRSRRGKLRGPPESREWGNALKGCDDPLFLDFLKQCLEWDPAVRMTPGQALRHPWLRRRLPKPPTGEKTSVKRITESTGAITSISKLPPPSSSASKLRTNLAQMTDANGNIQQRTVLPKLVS
As to the kind of experiment: Inhibition of DYRK2.

The target of experiment [9] is Cyclin-dependent kinase 1/cyclin B1 (Homo sapiens, UniProt P06493). As to the kind of experiment: Inhibition of CDK1/cyclin B. Type of experiment: protein-complex assay.
Experiment [10] deals with Glycogen synthase kinase-3 (Homo sapiens, UniProt P49840+P49841). As to the kind of experiment: Inhibition of GSK3alpha/beta. Type of experiment: protein assay.

These results are taken from ChEMBL document CHEMBL1157927, “Identification and structure-activity relationship of 8-hydroxy-quinoline-7-carboxylic acid derivatives as inhibitors of Pim-1 kinase” (Bioorg Med Chem Lett, 2010).

Where only a bound is given, the exact number is not on record here.

Cyclin-dependent kinase 5/CDK5 activator 1, sequence (Q00535 whole entry): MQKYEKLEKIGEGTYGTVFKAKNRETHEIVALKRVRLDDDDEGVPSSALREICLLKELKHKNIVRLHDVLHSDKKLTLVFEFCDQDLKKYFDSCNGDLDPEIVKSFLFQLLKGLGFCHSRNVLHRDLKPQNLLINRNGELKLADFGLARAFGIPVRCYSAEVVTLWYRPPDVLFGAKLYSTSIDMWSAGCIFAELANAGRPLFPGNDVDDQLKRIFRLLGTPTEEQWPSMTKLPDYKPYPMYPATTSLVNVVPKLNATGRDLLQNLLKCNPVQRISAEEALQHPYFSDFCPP
Cyclin-dependent kinase 5/CDK5 activator 1, sequence (Q15078 whole entry, further chain): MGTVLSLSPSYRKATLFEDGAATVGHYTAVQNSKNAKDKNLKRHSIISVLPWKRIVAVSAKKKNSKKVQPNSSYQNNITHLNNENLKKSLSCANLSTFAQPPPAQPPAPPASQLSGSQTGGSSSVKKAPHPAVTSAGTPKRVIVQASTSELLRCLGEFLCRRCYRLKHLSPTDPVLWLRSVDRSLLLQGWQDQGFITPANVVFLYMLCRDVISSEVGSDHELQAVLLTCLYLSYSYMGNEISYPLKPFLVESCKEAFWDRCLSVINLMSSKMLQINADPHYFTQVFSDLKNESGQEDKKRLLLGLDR
Dual specificity protein kinase CLK1, sequence (P49759 whole entry): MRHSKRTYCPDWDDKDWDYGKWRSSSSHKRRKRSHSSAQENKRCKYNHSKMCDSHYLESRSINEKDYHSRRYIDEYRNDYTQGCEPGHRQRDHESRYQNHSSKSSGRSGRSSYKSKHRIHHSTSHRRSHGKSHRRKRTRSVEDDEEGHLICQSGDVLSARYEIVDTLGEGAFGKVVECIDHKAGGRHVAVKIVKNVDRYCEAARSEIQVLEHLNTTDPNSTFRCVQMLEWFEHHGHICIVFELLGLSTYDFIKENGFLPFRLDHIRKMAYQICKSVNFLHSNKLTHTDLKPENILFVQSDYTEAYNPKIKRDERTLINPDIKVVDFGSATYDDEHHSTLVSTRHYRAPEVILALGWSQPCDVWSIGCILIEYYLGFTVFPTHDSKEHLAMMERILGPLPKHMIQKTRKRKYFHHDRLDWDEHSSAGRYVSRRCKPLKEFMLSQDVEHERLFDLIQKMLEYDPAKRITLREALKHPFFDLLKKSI
Casein kinase I isoform alpha, sequence (P48729 whole entry, canonical isoform): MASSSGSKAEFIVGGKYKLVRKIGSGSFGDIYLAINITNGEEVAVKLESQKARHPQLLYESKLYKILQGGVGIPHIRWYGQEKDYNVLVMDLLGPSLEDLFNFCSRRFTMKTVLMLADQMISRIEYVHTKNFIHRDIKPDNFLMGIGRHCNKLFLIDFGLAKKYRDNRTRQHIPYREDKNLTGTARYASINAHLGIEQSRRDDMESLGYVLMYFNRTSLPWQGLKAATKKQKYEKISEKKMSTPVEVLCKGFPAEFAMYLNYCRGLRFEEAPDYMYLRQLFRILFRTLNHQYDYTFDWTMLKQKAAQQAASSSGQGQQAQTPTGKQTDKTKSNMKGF
Cyclin-dependent kinase 1/cyclin B1, sequence (P06493 whole entry): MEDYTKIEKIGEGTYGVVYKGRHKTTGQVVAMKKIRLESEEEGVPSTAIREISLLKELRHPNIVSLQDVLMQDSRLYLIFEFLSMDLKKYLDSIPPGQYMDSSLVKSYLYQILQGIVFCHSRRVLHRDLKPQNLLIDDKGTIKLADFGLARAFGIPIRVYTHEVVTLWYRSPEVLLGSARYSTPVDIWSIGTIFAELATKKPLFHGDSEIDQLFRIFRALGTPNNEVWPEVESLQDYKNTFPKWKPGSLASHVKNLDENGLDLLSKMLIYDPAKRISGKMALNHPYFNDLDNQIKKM
Cyclin-dependent kinase 1/cyclin B1, sequence (P14635 whole entry, further chain): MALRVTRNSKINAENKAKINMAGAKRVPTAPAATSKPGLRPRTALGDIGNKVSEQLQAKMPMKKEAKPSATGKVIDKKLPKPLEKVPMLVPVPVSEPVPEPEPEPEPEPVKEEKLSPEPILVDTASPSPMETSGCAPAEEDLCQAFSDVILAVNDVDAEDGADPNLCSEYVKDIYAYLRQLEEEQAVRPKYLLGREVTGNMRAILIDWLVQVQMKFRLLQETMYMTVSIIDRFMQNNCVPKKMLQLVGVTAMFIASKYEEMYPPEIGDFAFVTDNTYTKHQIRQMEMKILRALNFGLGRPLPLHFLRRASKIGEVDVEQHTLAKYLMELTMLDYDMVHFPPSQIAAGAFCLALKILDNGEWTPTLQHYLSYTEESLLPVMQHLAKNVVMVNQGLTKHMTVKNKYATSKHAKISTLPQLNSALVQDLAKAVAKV
CDK1/Cyclin A, sequence (P06493 whole entry): as the sequence (P06493 whole entry) above
CDK1/Cyclin A, sequence (P20248 whole entry, further chain): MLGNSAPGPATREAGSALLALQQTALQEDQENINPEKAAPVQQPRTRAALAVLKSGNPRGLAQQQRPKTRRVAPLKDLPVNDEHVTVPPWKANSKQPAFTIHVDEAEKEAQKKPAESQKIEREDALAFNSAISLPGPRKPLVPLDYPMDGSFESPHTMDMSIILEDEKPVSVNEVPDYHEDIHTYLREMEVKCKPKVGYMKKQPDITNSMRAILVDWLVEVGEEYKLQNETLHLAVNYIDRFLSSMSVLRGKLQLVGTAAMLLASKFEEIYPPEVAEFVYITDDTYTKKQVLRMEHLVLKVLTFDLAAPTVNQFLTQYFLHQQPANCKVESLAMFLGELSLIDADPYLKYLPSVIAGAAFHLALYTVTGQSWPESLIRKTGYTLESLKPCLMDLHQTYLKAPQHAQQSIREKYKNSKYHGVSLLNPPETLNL

The term IC50 denotes the concentration that gives 50% inhibition. Lower therefore signals greater potency. With `COc1cc(/C=C/c2ccc3ccc(C(=O)O)c(O)c3n2)cc([N+](=O)[O-])c1O`, the 50% inhibitory concentration (IC50) in experiment [1] amounted to 2.8 µM. Compound `COc1cc(CNC(=O)c2ccc3ccc(C(=O)O)c(O)c3n2)cc(O)c1O` showed a half-maximal inhibitory concentration (IC50) in experiment [1] of 3.3 µM. The IC50 values of the last two compounds are within 1.5-fold of each other.

In the case of `O=C(NCc1ccc(O)c(O)c1)Nc1ccc2ccc(C(=O)O)c(O)c2n1`, the IC50 in experiment [1] amounted to 0.5 µM.

Broadly, the inhibition is how much of the control response was suppressed. Low values mean a weak effect, high ones a strong effect. As for `O=C(O)c1cccc2ccc(/C=C/c3ccc(O)c(O)c3)nc12`, the inhibition in [2] is > 50%. Also, the 50% inhibitory concentration (IC50) in experiment [1] was > 10 µM. `COc1ccc(CNC(=O)Nc2ccc3ccc(C(=O)O)c(O)c3n2)cc1`: the half-maximal inhibitory concentration (IC50) in [1] turned out to be 2 µM. Take `O=C(Nc1ccc(O)c(O)c1)Nc1ccc2ccc(C(=O)O)c(O)c2n1`: it took 1 µM to reach half-maximal inhibition in experiment [1] (IC50). In turn, `O=C(O)c1cc(/C=C/c2ccc3ccc(C(=O)O)c(O)c3n2)ccc1O` displayed an IC50 in experiment [1] of 3.1 µM. In the case of `O=C(O)c1ccc2ccc(/C=C/c3ccc(O)c(O)c3)nc2c1O`, in experiment [2], the inhibition was > 50%. Besides, in experiment [1], the midpoint of inhibition, the IC50, lay at 1.7 µM. Consider `O=C(O)c1ccc2ccc(/C=C/c3ccc(F)c(F)c3)nc2c1O`, for which, in experiment [1], half-maximal inhibition (IC50) was put at 4.5 µM. Same read-out and setting: as for `COc1cc(/C=C/c2ccc3ccc(C(=O)O)c(O)c3n2)cc(Cl)c1O`, the figure is 4.5 µM. `O=C(NCc1ccc(O)cc1)c1ccc2cccc(C(=O)O)c2n1`: the inhibition in [2] was > 50%. Besides, in experiment [1], the IC50 was > 10 µM. `O=C(NCc1cccc(O)c1O)c1ccc2ccc(C(=O)O)c(O)c2n1` displayed a half-inhibitory concentration (IC50) in experiment [1] of 2.8 µM. Regarding `O=C(c1ccncc1)c1ccc2ccc(/C=C/c3ccc(O)c(O)c3)nc2c1O`, the inhibition in experiment [2] is < 50%. The IC50 in experiment [1] is > 10 µM. The like results for `Cc1ccc2ccc(C(=O)O)c(O)c2n1` were, in that order, > 50% and > 10 µM. Compound `O=C(O)c1ccc2ccc(/C=C/c3cc(Br)c(O)c(Br)c3)nc2c1O` had an IC50 in experiment [1] of 2.1 µM. In other words, the single-digit micromolar range. With `COc1ccc(/C=C/c2ccc3ccc(C(=O)O)c(O)c3n2)cc1O`, the IC50 in experiment [3] was > 10 µM; in experiment [1], 0.5 µM; in experiment [4] it was > 10 µM; in experiment [5], 8.3 µM; in experiment [6] it was 1.3 µM; in experiment [7], > 10 µM. In addition, the values for the IC50 in [8], in experiment [9] and in [10] were 1.1 µM, > 10 µM and > 10 µM, respectively.

Turning to `O=C(NCc1ccc(O)cc1O)c1ccc2ccc(C(=O)O)c(O)c2n1`, the IC50 in experiment [3] was > 10 µM; in experiment [1], 0.2 µM; in experiment [4] it was > 10 µM; in experiment [5] it was > 10 µM; in experiment [6] it was 4.5 µM; in experiment [7], > 10 µM. Further, the half-inhibitory concentration (IC50) in experiment [8] was 6.3 µM; in experiment [9], > 10 µM; in [10], > 10 µM.

In the case of `COc1cc(/C=C/c2ccc3ccc(C(=O)O)c(O)c3n2)cc(O)c1O`, in experiment [1], the 50% inhibitory concentration (IC50) came to 3.1 µM. Still for that read-out and setting: as for `O=C(O)c1ccc2ccc(/C=C/c3cc(O)cc(O)c3)nc2c1O`, the figure is 0.4 µM; as for `O=C(NNc1ccc([N+](=O)[O-])cc1[N+](=O)[O-])c1ccc2ccc(C(=O)O)c(O)c2n1`, 3 µM; as for `O=C(O)c1ccc2ccc(/C=C/c3ccc(O)cc3O)nc2c1O`, 0.5 µM. For the compound `Cc1ccc2cccc(C(=O)O)c2n1`, the inhibition in experiment [2] was > 50%. Moreover, the IC50 in experiment [1] is > 10 µM. `O=C(O)c1ccc2ccc(/C=C/c3ccc([N+](=O)[O-])cc3)nc2c1O` gave a half-maximal inhibitory concentration (IC50) in experiment [1] of 3.4 µM. The same measure, in the same setting: the value for `O=C(O)c1ccc2ccc(/C=C/c3cccc(O)c3O)nc2c1O` was 7 µM; that for `O=C(NCc1cc(O)cc(O)c1)c1ccc2ccc(C(=O)O)c(O)c2n1` was 0.6 µM.

With `Oc1ccc(/C=C/c2ccc3cccc(O)c3n2)cc1O`, the inhibition in [2] was > 50%. Moreover, in experiment [1], the half-maximal inhibitory concentration (IC50) was > 10 µM.

Turning to `O=C(O)c1ccc(O)c2nc(/C=C/c3ccc(O)c(O)c3)ccc12`, the inhibition in experiment [2] is < 50%. Also, in [1], the IC50 was > 10 µM. Take `Cc1ccc2c(-c3ccccc3)cc(C(=O)O)c(O)c2n1`: the inhibition in [2] was > 50%. The half-maximal inhibitory concentration (IC50) in experiment [1] was > 10 µM.

As for `Cc1ccc2cccc(NS(C)(=O)=O)c2n1`, in [2], the inhibition was > 50%. Also, the IC50 in [1] is > 10 µM. For `O=C(NCc1ccc(O)c(O)c1)c1ccc2ccc(C(=O)O)c(O)c2n1` the same measures were > 50% and 2.1 µM. In experiment [1], `O=C(O)c1ccc2ccc(/C=C/c3cc(O)c(O)c(O)c3)nc2c1O` gave an IC50 of 5.5 µM.

`COc1cc(/C=C/c2ccc3ccc(C(=O)O)c(O)c3n2)cc(OC)c1O` had a half-inhibitory concentration (IC50) in experiment [1] of 2.5 µM. Turning to `O=C(NCc1ccc(O)c(O)c1)c1ccc2c(Cl)cc(Cl)c(O)c2n1`, the inhibition in experiment [2] was > 50%. Moreover, the IC50 in experiment [1] is > 10 µM. Compound `O=C(O)c1ccc2ccc(/C=C/c3ccc(O)cc3)nc2c1O` displayed an IC50 in [1] of 0.7 µM. For `O=C(O)c1ccc2ccc(/C=C/c3ccccc3)nc2c1O`, the half-maximal inhibitory concentration (IC50) in [1] was 3.2 µM. `O=C(O)c1ccc2ccc(/C=C/c3ccc4c(c3)OCO4)nc2c1O`: the half-maximal inhibitory concentration (IC50) in experiment [1] was 3 µM. The same measure, in the same setting: the value for `Nc1ccc(/C=C/c2ccc3ccc(C(=O)O)c(O)c3n2)cc1` was 4 µM; that for `COc1cc(/C=C/c2ccc3ccc(C(=O)O)c(O)c3n2)ccc1O` was 2 µM. `O=C(NNc1ccccc1)c1ccc2ccc(C(=O)O)c(O)c2n1`: the IC50 in experiment [1] stood at 5.1 µM. On to `O=C(O)c1ccc2ccc(CCc3ccc(O)c(O)c3)nc2c1O`, for which the inhibition in [2] is > 50%. Moreover, in experiment [1], the IC50 was 5 µM. In experiment [1], `COc1cc(NC(=O)c2ccc3ccc(C(=O)O)c(O)c3n2)cc(O)c1O` came in with an IC50 of 1 µM.
